According to patent publication US9228202B2, “Intracellular viral vector delivery method employing iron ion/viral vector composite” (POSTECH ACADEMY-INDUSTRY FOUNDATION, priority 2009, dated 2016):

Legend:
[1] = system: rBMSC; experiment: Cytotoxicity assay of ferric ions (CCK8 cell viability); type: cell-based, rat
Experimental: A cytotoxicity assay was done with rBMSC in order to evaluate the safety of ferric ions alone or the ferric ion/adenoviral vector composite to the body. rBMSC was incubated for 2 hours with 0.2 μM˜50 mM ferric ions alone or in combination with 100 MOI of an adenoviral vector. On the next day, cell viability was determined using a CCK8 kit (DOJINDO, Japan).

[2] = system: rBMSC; experiment: Comparison of intracellular delivery of adenoviral vector among ferrous, ferric and calcium ions; type: cell-based, rat; details: rAd/EGFP 30 MOI with 50 μM cation
Experimental: To examine whether ferric irons (Fe^3+) improve the delivery of […] into cells, the adenoviral vector rAd/EGFP, which carries a GFP (green fluorescent protein) gene, was employed. First, 30 or 100 MOI of rAd/EGFP was mixed and incubated with 2 μM, 10 μM or 50 μM ferric ions for 30 min at room temperature, followed by infection for 2 hours into rat bone marrow mesenchymal stem cells (rBMSC), the human cervical cancer cell line HeLa, and the human amelanotic melanoma cell line (A375), all free from the expression of CAR, a primary receptor for adenoviruses. Then, the viral mixture was removed and the medium was changed with DMEM before incubation for two days in a CO2 incubator (CO2 water Jacketed Incubator, Form a Scientific™). The cells were detached by trypsinization and analyzed for intracellular GFP level using FACS (fluorescence activated cell sorter, BD).
Ferrous and ferric ions were compared with calcium ions, known to improve the gene delivery of adenoviral vectors, for efficacy of gene delivery. In this regard, rBMSC was treated with rAd/EGFP (30 MOI) and 50 μM cations (Fe^2+, Fe^3+, Ca^2+) in the same manner as in Example 1, and the efficacy of gene delivery was compared among the cations.

| SMILES | 50% cell viability concentration relative to the iron ion concentration used for gene delivery (10~50 μM) [1] [fold] | iron ion concentration at which cytotoxicity starts ([1]; 2 h incubation, CCK8 next day) [mM] | cell viability ([1]; iron ion concentration of 50 mM, CCK8) | gene delivery efficiency relative to calcium ions [2] [times] |
| --- | --- | --- | --- | --- |
| [Fe+3] [ferric ions] | 1000 | 10 | decreased to zero | 60 |
| [Fe+2] [ferrous ions] | – | – | – | 60 |
